One series deals with MOLT-4. Description: In vitro cell viability bioassay, CellTiter-Glo, MOLT-4. In kind it is cell-based, human. As to conditions: Table 5; repeats Table 3; read-out: Leukemia MOLT-4 IC50. Here is the method:
(§1) To evaluate the cell growth inhibitory and apoptosis inducing effects of the fluorinated curcuminoids and their BF2 adducts, in-vitro bioassay tests were performed on […] different cancer cell lines namely: MOLT-4 (human leukemia suspension cancer cell line), PC3 and LNCap (human […] prostate cancer cell lines respectively), A549 (lung cancer), and MDA231 (breast cancer), and the results are sketched in Table 3.
(§2) The cell viability/anti-proliferative activity of the curcuminoids against PC3 (human androgen-insensitive prostate cancer cell line), LNCap (human-androgen sensitive prostate cancer cell line), A549 (lung cancer), and MDA231 (breast cancer) were determined by means of 3-(4,5-dimethyl-2-thiazolyl)-2,5-diphenyl-2H-tetrazolium bromide (MTT) assay (the tetrazolium salt was a commercial sample). (R. N. Khaybullin, et al., Molecules, 2014, 19, 18676-18689). The ability of the curcuminoids to affect proliferations of suspension cell lines (MOLT-4) was tested by the CellTiter-Glo® Luminescent Cell Viability Assay (purchased from Promega Madison, Wis., USA) to determine the number of viable cells in culture based on quantitation of the ATP present. The IC50 values were obtained from fitting data with GraphPad software to determine the growth inhibition in the presence of test compounds. (R. N. Khaybullin, et al., Molecules, 2014, 19, 18676-18689).

The test system of series [1] is NCI-60 human tumor cell lines. As to the kind of experiment: NCI-60 one-dose screening (10^−5 M). Type of series: cell-based.
Excerpt: The CUR—BF2 adducts 5, 10, and 19, the (CF3)2—CUR 20 and the (CF3)2—CUR—BF2 adduct 21 of FIG. 2 were screened at the National Cancer Institute using NCI-60 cell one-dose protocol (10^−5 M).
(§3) Samples were submitted to the National Cancer Institute (NCI of NIH) Developmental Therapeutics anticancer screening program (DTP) for human tumor cell line assay by NCI-60 screening against leukemia, lung, colon, and CNS cancers, as well as melanoma, ovarian, renal, prostate, and breast cancers. Compounds are initially tested at a single dose of 10-5 molar. Data are reported as mean graph of percent growth (GP). Growth inhibition is shown by values between 0 and 100 and lethality by values less than zero. Compounds that meet selection criteria based on one-dose assay are then tested against 60 cell panel at five concentrations.
as §3, with “NCI-60 assay: Samples” for “Samples”, “10^−5” for “10-5”
NCI-60 assay: samples were submitted to the National Cancer Institute (NCI of NIH) Developmental Therapeutics anticancer screening program (DTP) for human tumor cell line assay by NCI-60 screening against leukemia, lung, colon, and CNS cancers, as well as melanoma, ovarian, renal, prostate, and breast cancers. Compounds are initially tested at a single dose of 10^−5 molar. Data are reported as mean graph of percent growth (GP). Selected data output are shown in SI file. Growth inhibition is represented by values between 0 and 100 and lethality by values less than zero.

The subject of another series is MDA231. As to the kind of experiment: In vitro cell viability bioassay, MTT, MDA231. In kind it is cell-based, human. As to conditions: Table 4, repeats Table 3, read-out: IC50 MDA231 (Breast cancer). Here is the method: as §1, §2

Read-outs that look alike come from different tables or passages of the source.

As to `COc1ccc(/C=C/C(=O)C(F)=C(O)/C=C/c2ccc(OC)c(OC)c2)cc1OC` [drawing 85], the IC50 in the series with MOLT-4 amounted to 0.076 µM. Consider `COc1cc(F)c(/C=C/C2=CC(/C=C/c3cc(OC)c(OC)cc3F)=[O+][B-](F)(F)O2)cc1OC` [drawing 86], for which, in the series on MOLT-4, the IC50 turned out to be 0.01 µM. Regarding `F[B-]1(F)OC(/C=C/c2ccc(C(F)(F)F)cc2)=CC(/C=C/c2ccc(C(F)(F)F)cc2)=[O+]1`, in series [1] (words in the IC50 MDA231 column of Table 4), the NCI-60 cell screening result is recorded as “NCI-60 cell screening modest activity”.

As for `Fc1ccc(/C=C/C2=CC(/C=C/c3ccc(F)cc3)=[O+][B-](F)(F)O2)cc1`, in the series with MDA231, the IC50 is 1 µM. Consider `COc1cc(F)c(/C=C/C2=CC(/C=C/c3cc(OC)c(OC)cc3F)=[O+][B-](F)(F)O2)cc1OC` [drawing 72], for which, in the series on MDA231, the IC50 is 1.7 µM. As to `COc1ccc(/C=C/C(=O)C=C(O)/C=C/c2ccc(OC)c(OC)c2)cc1OC` [drawing 83], the IC50 with MOLT-4 was found to be 0.043 µM.

As for `COc1cc(/C=C/C(=O)C=C(O)/C=C/c2ccc(O)c(OC)c2)ccc1O` [drawing 75], the IC50 in the series with MDA231 worked out at 11.5 µM. For the compound `COc1cc(/C=C/C(=O)C(F)(F)C(=O)/C=C/c2ccc(OC)c(OC)c2)ccc1O`, in the series on MDA231 (Homo sapiens, MDA-MB-231), the IC50 stood at 2.2 µM.

Take `O=C(/C=C/c1ccc(F)cc1)C(F)(F)C(=O)/C=C/c1ccc(F)cc1` [drawing 77]: the IC50 in the series with MDA231 (Homo sapiens, MDA-MB-231) is 6.7 µM. With `COc1cc(/C=C/C(=O)C=C(O)/C=C/c2ccc(O)c(OC)c2)ccc1O` [drawing 82], the concentration for half-maximal inhibition (IC50) with MOLT-4 turned out to be 19 µM. Regarding `F[B-]1(F)OC(/C=C/c2csc3ccccc23)=CC(/C=C/c2csc3ccccc23)=[O+]1` [7-BF2, Benzothiophene-3-Curcuminoid-BF2 adduct], the “anti-proliferative activity by the NCI-60 in-vitro assay” value in series [1] (10^−5 molar, Example 5) is reported as “notable anti-proliferative activity”. For `O=C(/C=C/c1ccc(SC(F)(F)F)cc1)/C=C(O)\C=C\c1ccc(SC(F)(F)F)cc1` [compound 19 of FIG. 35, (1E,4E,6E)-5-Hydroxy-1,7-bis(4-trifluoromethylthiophenyl)hepta-1,4,6-trien-3-one], the “anti-proliferative potency against HCT-116” value in series [1] (dose mean graph, FIG. 22) is reported as “high anti-proliferative potency”. For the compound `COc1ccc(/C=C/C(=O)C(F)=C(O)/C=C/c2ccc(OC)c(OC)c2)cc1OC` [drawing 69], the IC50 in the series with MDA231 was found to be 0.023 µM. On the same count and under the same terms, the figure for `COc1ccc(/C=C/C2=CC(/C=C/c3ccc(OC)c(OC)c3)=[O+][B-](F)(F)O2)cc1OC` [drawing 73] is 2 µM.

As to `COc1cc(/C=C/C(=O)C(F)=C(O)/C=C/c2ccc(O)c(OC)c2)ccc1O`, the IC50 in the series on MDA231 stood at 6.2 µM. Still for that read-out and setting: with `O=C(/C=C/c1ccc(F)cc1)C(F)=C(O)/C=C/c1ccc(F)cc1` the figure was 12 µM. Regarding `COc1ccc(/C=C/C2=CC(/C=C/c3ccc(OC)c(OC)c3)=[O+][B-](F)(F)O2)cc1OC` [drawing 84], the IC50 in the series with MOLT-4 was found to be 0.00056 µM.

For the compound `COc1ccc(C=Cc2cc(C=Cc3ccc(OC)c(OC)c3OC)on2)c(OC)c1OC` [compound 40 of FIG. 43, 3,5-bis-(2,3,4-Trimethoxystyryl)-isoxazole], the melting point lay within 136 to 137 °C. For `COc1ccc(/C=C/C(=O)C=C(O)/C=C/c2ccc(OC)c(OC)c2)cc1OC` [drawing 70], the IC50 in the series on MDA231 is 0.28 µM.
